Drawing on patent US10800772B2 (Gilead Sciences, Inc., priority 2016, dated 2020), this text covers EC50 for 14 molecules.

Assay type in all cases: cell-based, HIV-1
Test [1] deals with HIV-IIIb IN T174I BT. The experiment in a line: Antiviral assay in MT4 cells, HIV-IIIb IN T174I BT virus (from viral breakthrough). As to conditions: Human immunodeficiency virus 1, IIIB, MT4, 120 h, read-out: T174I BT EC50, MT4 cells, HIV-IIIb IN T174I BT (viral breakthrough), 5 days, CellTiter-Glo. In outline: (§1)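 Compounds were titrated as 3-fold serial dilutions at 10 concentrations, in quadruplicate, against 2000 MT4 cells/well that had been infected for 3 h with HIV-IIIb at 0.004 m.o.i. Viruses were wildtype or integrase T174I mutants from breakthrough selection or dose-escalation passaging; mock-infected cells were run in parallel. After 5 days' culture, EC50 was derived as 50% reduction of CellTiter-Glo luminescence, which reflects HIV-1 replication.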
(In general: Cellular ATP, detected with luciferase, serves as a proxy for viable cell number.)

In test [2] the test system is HIV-IIIb (wildtype). The test can be described thus: Antiviral assay in MT4 cells, HIV-IIIb wildtype. Particulars: Human immunodeficiency virus 1, IIIB, MT4, 120 h, read-out: WT EC50. Put shortly: as §1
The test system of test [3] is HIV-IIIb IN T174I DE. The experiment in a line: Antiviral assay in MT4 cells, HIV-IIIb IN T174I DE virus (from dose escalation passaging). Particulars: Human immunodeficiency virus 1, IIIB, MT4, 120 h, read-out: T174I DE EC50, MT4 cells, HIV-IIIb IN T174I DE (dose escalation), 5 days, CellTiter-Glo. Put shortly: as §1

The term EC50 denotes the concentration giving half of the maximal effect. Regarding `Cc1cc2nc(-c3ccc4c(c3)c(C3CN(C(C)C)C3)nn4C)sc2c(-c2ccc(Cl)cc2)c1[C@H](OC(C)(C)C)C(=O)O` [Compound 54, (S)-2-(tert-butoxy)-2-(7-(4-chlorophenyl)-2-(3-(1-isopropylazetidin-3-yl)-1-methyl-1H-indazol-5-yl)-5-methylbenzo[d]thiazol-6-yl)acetic acid], the figures for the EC50 in test [1], in test [2] and in test [3] were 1830 nM, 6 nM and 3290 nM, respectively.

Consider `Cc1cc2nc(-c3ccc4c(c3)c(C3CN(C(C)C)C3)nn4C)sc2c(-c2ccc(Cl)cc2)c1[C@H](OC1CC1)C(=O)O` [Compound 55, (S)-2-(7-(4-chlorophenyl)-2-(3-(1-isopropylazetidin-3-yl)-1-methyl-1H-indazol-5-yl)-5-methylbenzo[d]thiazol-6-yl)-2-cyclopropoxyacetic Acid], for which the figures for the EC50 in test [1], in test [2] and in test [3] were 372 nM, 36 nM and 1070 nM, respectively.

For the molecule `COCCN1CC(c2nn(C)c3ccc(-c4nc5cc(C)c([C@H](OC(C)(C)C)C(=O)O)c(-c6ccc(Cl)cc6)c5s4)cc23)C1` [Compound 56, (S)-2-(tert-butoxy)-2-(7-(4-chlorophenyl)-2-(3-(1-(2-methoxyethyl)azetidin-3-yl)-1-methyl-1H-indazol-5-yl)-5-methylbenzo[d]thiazol-6-yl)acetic acid], the EC50 is 1390 nM in test [1], 4 nM in test [2] and 2070 nM in test [3].

Turning to `Cc1cc2nc(-c3ccc4c(c3)c(C3CN(C)C3)nn4C)sc2c(-c2ccc(Cl)cc2)c1[C@H](OC(C)(C)C)C(=O)O` [Compound 57, (S)-2-(tert-butoxy)-2-(7-(4-chlorophenyl)-5-methyl-2-(1-methyl-3-(1-methylazetidin-3-yl)-1H-indazol-5-yl)benzo[d]thiazol-6-yl)acetic acid], the half-maximal effective concentration (EC50) in test [1] was found to be 4260 nM; in test [2], 13 nM; in test [3], 4140 nM.

On to `CCN1CC(c2nn(C)c3ccc(-c4nc5cc(C)c([C@H](OC(C)(C)C)C(=O)O)c(-c6ccc(Cl)cc6)c5s4)cc23)C1` [Compound 58, (S)-2-(tert-butoxy)-2-(7-(4-chlorophenyl)-2-(3-(1-ethylazetidin-3-yl)-1-methyl-1H-indazol-5-yl)-5-methylbenzo[d]thiazol-6-yl)acetic acid], for which the half-maximal effective concentration (EC50) in test [1] is 1930 nM; in test [2] it was 9 nM; in test [3] it was 3090 nM.

Regarding `Cc1cc2nc(-c3ccc4c(c3)c(C3CN(C5COC5)C3)nn4C)sc2c(-c2ccc(Cl)cc2)c1[C@H](OC(C)(C)C)C(=O)O` [Compound 59, (S)-2-(tert-butoxy)-2-(7-(4-chlorophenyl)-5-methyl-2-(1-methyl-3-(1-(oxetan-3-yl)azetidin-3-yl)-1H-indazol-5-yl)benzo[d]thiazol-6-yl)acetic acid], the half-maximal effective concentration (EC50) in test [1] was determined as 883 nM; in test [2] it was 8 nM; in test [3] it was 1730 nM.

For `Cc1cc2nc(-c3ccc4c(c3)c(C3CN(C(C)(C)C)C3)nn4C)sc2c(-c2ccc(Cl)cc2)c1[C@H](OC1CC1)C(=O)O` [Compound 60, (S)-2-(2-(3-(1-(tert-butyl)azetidin-3-yl)-1-methyl-1H-indazol-5-yl)-7-(4-chlorophenyl)-5-methylbenzo[d]thiazol-6-yl)-2-cyclopropoxyacetic acid], the half-maximal effective concentration (EC50) came to 477 nM in test [1], 31 nM in test [2] and 692 nM in test [3].

For `Cc1cc2nc(-c3ccc4c(c3)c(C3CCN(C(=O)OC(C)(C)C)C3)nn4C)sc2c(-c2ccc(Cl)cc2)c1[C@H](OC(C)(C)C)C(=O)O` (stereo partly drawn) [Compound 62, (2S)-2-(tert-butoxy)-2-(2-(3-(1-(tert-butoxycarbonyl)pyrrolidin-3-yl)-1-methyl-1H-indazol-5-yl)-7-(4-chlorophenyl)-5-methylbenzo[d]thiazol-6-yl)acetic acid], the figures for the half-maximal effective concentration (EC50) in test [1], in test [2] and in test [3] were 331 nM, 108 nM and 514 nM, respectively.

Consider `Cc1cc2nc(-c3ccc4c(c3)c(C3CCN(C)C3)nn4C)sc2c(-c2ccc(Cl)cc2)c1[C@H](OC(C)(C)C)C(=O)O` (stereo partly drawn) [Compound 63, (2S)-2-(tert-butoxy)-2-(7-(4-chlorophenyl)-5-methyl-2-(1-methyl-3-(1-methylpyrrolidin-3-yl)-1H-indazol-5-yl)benzo[d]thiazol-6-yl)acetic acid], for which the results for the EC50 in test [1], in test [2] and in test [3] were 2800 nM, 10 nM and 13200 nM, respectively.

As for `CCN1CCC(c2nn(C)c3ccc(-c4nc5cc(C)c([C@H](OC(C)(C)C)C(=O)O)c(-c6ccc(Cl)cc6)c5s4)cc23)C1` (stereo partly drawn) [Compound 64, (2S)-2-(tert-butoxy)-2-(7-(4-chlorophenyl)-2-(3-(1-ethylpyrrolidin-3-yl)-1-methyl-1H-indazol-5-yl)-5-methylbenzo[d]thiazol-6-yl)acetic acid], the 50% effective concentration (EC50) in test [1] was 2840 nM; in test [2] it was 11 nM; in test [3] it was 2620 nM.

Consider `COCCN1CCC(c2nn(C)c3ccc(-c4nc5cc(C)c([C@H](OC(C)(C)C)C(=O)O)c(-c6ccc(Cl)cc6)c5s4)cc23)C1` (stereo partly drawn) [Compound 65, (2S)-2-(tert-butoxy)-2-(7-(4-chlorophenyl)-2-(3-(1-(2-methoxyethyl)pyrrolidin-3-yl)-1-methyl-1H-indazol-5-yl)-5-methylbenzo[d]thiazol-6-yl)acetic acid], for which the EC50 in test [1] is 752 nM; in test [2], 4 nM; in test [3], 2120 nM.

Consider `Cc1cc2nc(-c3ccc4c(c3)c(C3CCN(C5CCC5)C3)nn4C)sc2c(-c2ccc(Cl)cc2)c1[C@H](OC(C)(C)C)C(=O)O` (stereo partly drawn) [Compound 71, (2S)-2-(tert-butoxy)-2-(7-(4-chlorophenyl)-2-(3-(1-cyclobutylpyrrolidine-3-yl)-1-methyl-1H-indazol-5-yl)-5-methylbenzo[d]thiazol-6-yl)acetic acid], for which the EC50 in test [1] is 2470 nM; in test [2], 5 nM; in test [3] it was 2240 nM.

As to `COC(=O)N1CCC(c2nn(C)c3ccc(-c4nc5cc(C)c([C@H](OC(C)(C)C)C(=O)O)c(-c6ccc(Cl)cc6)c5s4)cc23)C1` (stereo partly drawn) [Compound 72, (2S)-2-(tert-butoxy)-2-(7-(4-chlorophenyl)-2-(3-(1-(methoxycarbonyl)pyrrolidin-3-yl)-1-methyl-1H-indazol-5-yl)-5-methylbenzo[d]thiazol-6-yl)acetic acid], the results for the EC50 in test [1], in test [2] and in test [3] were 553 nM, 7 nM and 1030 nM, respectively.

Consider `COCC(=O)N1CCC(c2nn(C)c3ccc(-c4nc5cc(C)c([C@H](OC(C)(C)C)C(=O)O)c(-c6ccc(Cl)cc6)c5s4)cc23)C1` (stereo partly drawn) [Compound 75, (S)-2-(tert-butoxy)-2-(7-(4-chlorophenyl)-2-(3-((R)-1-(2-methoxyacetyl)pyrrolidin-3-yl)-1-methyl-1H-indazol-5-yl)-5-methylbenzo[d]thiazol-6-yl)acetic acid], for which the values for the 50% effective concentration (EC50) in test [1], in test [2] and in test [3] were 423 nM, 16 nM and 496 nM, respectively.
